Measurements taken from publication PMC6930567, “NMR Study of the Secondary Structure and Biopharmaceutical Formulation of an Active Branched Antimicrobial Peptide” (Molecules, 2019).
Structures can show the parent of a compound that is named as a salt. Where two headings read alike, the source gives them in different places. Positions of bridges follow the written chain, without caps; N, C: chain ends. Non-standard residues stand in square brackets, D forms with d. Residues, ends and D or L forms follow the SMILES beside them. Chains are numbered I, II in the order given. βAla = NCCC(=O)O

How the values were obtained:
[1] = test system: T24 human bladder epithelial cells; type: cell-based; conditions: 48 h
Protocol: (§1) T24 human epithelial bladder cells, 16HBE14o- human bronchial epithelial cells and RAW264.7 mouse macrophages were plated at a density of 2.5 × 10^4 cells/well in 96-well microplates. The 16HBE14o- cells were previously incubated with coating solution (88% LHC basal medium, 10% bovine serum albumin, 30 µg/mL bovine collagen type I and 1% human fibronectin). Different concentrations of SET-M33 TFA, acetate and chloride were added 24 h after plating. Cells were grown for 48 h at 37 °C. Their viability was assessed by 3-(4,5-dimethylthiazol-2-yl)2,5-diphenyltetrazolium bromide (MTT) assay. EC50 values were obtained by dose-response variable slope analysis using GraphPad Prism 5.03 software (San Diego, CA, USA).

[2] = test system: RAW264.7 mouse macrophages; type: cell-based; conditions: 48 h
Protocol: as §1

[3] = test system: 16HBE14o- human bronchial epithelial cells; type: cell-based; conditions: 48 h
Protocol: as §1

[4] = test system: CD1 mice; conditions: cited from earlier work; for signs of acute toxicity in vivo: scored not-observable, mild, severe
Protocol: (§2) Table 4 Signs of acute toxicity in vivo of the three SET-M33 salts. | column: 20 mg/kg; 25 mg/kg || Acute toxicity of SET-M33 chloride was tested in mice and compared with the acetate and TFA counter-ions. Ten animals per group (five males and five females) were injected with two doses of SET-M33 chloride, 20 and 30 mg/kg, known to be below the LD50 [7]. Signs of toxicity were scored as not-observable, mild and severe. SET-M33 chloride and SET-M33 acetate scored 100% not-observable (Table 4), unlike the TFA that scored 100% toxicity at 25 mg/kg, described as 33% severe and 66% mild.

[5] = test system: CD1 mice; test: Acute toxicity in mice; type: in vivo, mouse; conditions: for signs of acute toxicity in vivo: 10/group, monitored 96 h, scored not-observable, mild, severe; for share of animals scored not-observable for signs of toxicity: i.v. single dose, chloride 20 and 30 mg/kg, acetate 25 and 30 mg/kg
Protocol: as §2, with “Acute” for “Table 4 Signs of acute toxicity in vivo of the three SET-M33 salts. | column: 20 mg/kg; 25 mg/kg || Acute”
All animal experiments were conducted under the protocol approved by the Italian Ministry of Health at the Toscana Life Sciences Foundation animal facility in Siena, Italy (authorization n. 34/2016PR). Animals (10 CD1 mice/group, 20–22 g) were injected i.v. with SET-M33 acetate (group 1 and group 2) and SET-M33 chloride (group 3 and group 4), in a single dose. The doses were: group 1, 25 mg/kg SET-M33 acetate; group 2, 30 mg/kg SET-M33 acetate; group 3, 20 mg/kg SET-M33 chloride and group 4, 30 mg/kg SET-M33 chloride. Animals were monitored for 96 h. Signs of toxicity were checked four times a day by visual inspection and were scored as not-observable, mild and severe. Mice were weighed every day from arrival to the last day of the experiment. Animals with clear signs of distress, such as reduced mobility and weight loss greater than 20%, were anesthetized and sacrificed with carbon dioxide or by cervical dislocation.

[6] = test system: P. aeruginosa PAO-1; type: cell-based; conditions: PAO-1, 24 h
Protocol: (§3) Antimicrobial susceptibility was assessed by determining the minimum inhibitory concentrations (MICs) of SET-[…] acetate and SET-[…] chloride against E. coli TG-1 and P. aeruginosa PAO-1, using the broth microdilution technique according to 2017 EUCAST guidelines. The MIC assay measures visible inhibition of bacterial growth after 24 h exposure of bacteria to antibiotic in Mueller-Hinton (MH) broth. Assays were performed in triplicate using a bacterial inoculum of 5 × 10^4 CFU/well in a final volume of 100 μL. The twofold antibiotic concentration ranged from 0.1 μM to 12 μM for both peptides. MICs were read after 24 h of incubation at 35 °C.

[7] = test system: E. coli TG-1; type: cell-based; conditions: TG-1, 24 h
Protocol: as §3

CC[C@H](C)[C@H](NC(=O)[C@H](CCCCN)NC(=O)[C@@H](N)CCCCN)C(=O)N[C@@H](CCCNC(=N)N)C(=O)N[C@H](C(=O)N[C@@H](CCCNC(=N)N)C(=O)N[C@@H](CC(C)C)C(=O)N[C@@H](CO)C(=O)N[C@@H](C)C(=O)NCCCC[C@H](NC(=O)[C@H](C)NC(=O)[C@H](CO)NC(=O)[C@H](CC(C)C)NC(=O)[C@H](CCCNC(=N)N)NC(=O)[C@@H](NC(=O)[C@H](CCCNC(=N)N)NC(=O)[C@@H](NC(=O)[C@H](CCCCN)NC(=O)[C@@H](N)CCCCN)[C@@H](C)CC)C(C)C)C(=O)NCCCC[C@H](NC(=O)[C@H](CCCCNC(=O)[C@H](C)NC(=O)[C@H](CO)NC(=O)[C@H](CC(C)C)NC(=O)[C@H](CCCNC(=N)N)NC(=O)[C@@H](NC(=O)[C@H](CCCNC(=N)N)NC(=O)[C@@H](NC(=O)[C@H](CCCCN)NC(=O)[C@@H](N)CCCCN)[C@@H](C)CC)C(C)C)NC(=O)[C@H](C)NC(=O)[C@H](CO)NC(=O)[C@H](CC(C)C)NC(=O)[C@H](CCCNC(=N)N)NC(=O)[C@@H](NC(=O)[C@H](CCCNC(=N)N)NC(=O)[C@@H](NC(=O)[C@H](CCCCN)NC(=O)[C@@H](N)CCCCN)[C@@H](C)CC)C(C)C)C(=O)NCCC(=O)O)C(C)C [SET-M33 TFA] (I: H-KKIRVRLSAKK[βAla]-OH / II: H-KKIRVRLSAK / III: H-KKIRVRLSA / IV: H-KKIRVRLSA; amide I:10-IV:C, I:11-II:C, II:10-III:C) gave an EC50 [1] of 13.6 µM, an EC50 [2] of 3.85 µM and an EC50 [3] of 11.1 µM. The “signs of acute toxicity in vivo” value ([4]; 25 mg/kg) was “mild to severe”, the “share of animals with mild signs of toxicity” value ([4]; 25 mg/kg) was 66% and the “share of animals with severe signs of toxicity” value ([4]; 25 mg/kg) was 33%. For the same molecule, the “toxicity score (share of animals with signs of toxicity)” value ([4]; 25 mg/kg) was 100%.
In the case of CC[C@H](C)[C@H](NC(=O)[C@H](CCCCN)NC(=O)[C@@H](N)CCCCN)C(=O)N[C@@H](CCCNC(=N)N)C(=O)N[C@H](C(=O)N[C@@H](CCCNC(=N)N)C(=O)N[C@@H](CC(C)C)C(=O)N[C@@H](CO)C(=O)N[C@@H](C)C(=O)NCCCC[C@H](NC(=O)[C@H](C)NC(=O)[C@H](CO)NC(=O)[C@H](CC(C)C)NC(=O)[C@H](CCCNC(=N)N)NC(=O)[C@@H](NC(=O)[C@H](CCCNC(=N)N)NC(=O)[C@@H](NC(=O)[C@H](CCCCN)NC(=O)[C@@H](N)CCCCN)[C@@H](C)CC)C(C)C)C(=O)NCCCC[C@H](NC(=O)[C@H](CCCCNC(=O)[C@H](C)NC(=O)[C@H](CO)NC(=O)[C@H](CC(C)C)NC(=O)[C@H](CCCNC(=N)N)NC(=O)[C@@H](NC(=O)[C@H](CCCNC(=N)N)NC(=O)[C@@H](NC(=O)[C@H](CCCCN)NC(=O)[C@@H](N)CCCCN)[C@@H](C)CC)C(C)C)NC(=O)[C@H](C)NC(=O)[C@H](CO)NC(=O)[C@H](CC(C)C)NC(=O)[C@H](CCCNC(=N)N)NC(=O)[C@@H](NC(=O)[C@H](CCCNC(=N)N)NC(=O)[C@@H](NC(=O)[C@H](CCCCN)NC(=O)[C@@H](N)CCCCN)[C@@H](C)CC)C(C)C)C(=O)NCCC(=O)O)C(C)C [SET-M33 acetate] (I: H-KKIRVRLSAKK[βAla]-OH / II: H-KKIRVRLSAK / III: H-KKIRVRLSA / IV: H-KKIRVRLSA; amide I:10-IV:C, I:11-II:C, II:10-III:C), the EC50 [1] is reported as 12.4 µM, the EC50 [2] is reported as 5.1 µM and the EC50 [3] is reported as 9.62 µM. For the same molecule, the “signs of acute toxicity in vivo” value ([5]; 25 mg/kg i.v. single dose) was “not-observable”, the “signs of acute toxicity in vivo” value ([5]; 30 mg/kg i.v. single dose) was “not-observable” and the “share of animals scored not-observable for signs of toxicity” value [5] was 100%. For the same molecule, the MIC [6] was 3 µM, the MIC [7] was 1.5 µM and the “signs of acute toxicity in vivo” value ([4]; 20 mg/kg) was “not-observable [6]”.
CC[C@H](C)[C@H](NC(=O)[C@H](CCCCN)NC(=O)[C@@H](N)CCCCN)C(=O)N[C@@H](CCCNC(=N)N)C(=O)N[C@H](C(=O)N[C@@H](CCCNC(=N)N)C(=O)N[C@@H](CC(C)C)C(=O)N[C@@H](CO)C(=O)N[C@@H](C)C(=O)NCCCC[C@H](NC(=O)[C@H](C)NC(=O)[C@H](CO)NC(=O)[C@H](CC(C)C)NC(=O)[C@H](CCCNC(=N)N)NC(=O)[C@@H](NC(=O)[C@H](CCCNC(=N)N)NC(=O)[C@@H](NC(=O)[C@H](CCCCN)NC(=O)[C@@H](N)CCCCN)[C@@H](C)CC)C(C)C)C(=O)NCCCC[C@H](NC(=O)[C@H](CCCCNC(=O)[C@H](C)NC(=O)[C@H](CO)NC(=O)[C@H](CC(C)C)NC(=O)[C@H](CCCNC(=N)N)NC(=O)[C@@H](NC(=O)[C@H](CCCNC(=N)N)NC(=O)[C@@H](NC(=O)[C@H](CCCCN)NC(=O)[C@@H](N)CCCCN)[C@@H](C)CC)C(C)C)NC(=O)[C@H](C)NC(=O)[C@H](CO)NC(=O)[C@H](CC(C)C)NC(=O)[C@H](CCCNC(=N)N)NC(=O)[C@@H](NC(=O)[C@H](CCCNC(=N)N)NC(=O)[C@@H](NC(=O)[C@H](CCCCN)NC(=O)[C@@H](N)CCCCN)[C@@H](C)CC)C(C)C)C(=O)NCCC(=O)O)C(C)C [SET-M33 chloride] (I: H-KKIRVRLSAKK[βAla]-OH / II: H-KKIRVRLSAK / III: H-KKIRVRLSA / IV: H-KKIRVRLSA; amide I:10-IV:C, I:11-II:C, II:10-III:C) showed an EC50 [1] of 22.6 µM, an EC50 [2] of 6.12 µM and an EC50 [3] of 10.3 µM. The “signs of acute toxicity in vivo” value ([5]; 20 mg/kg i.v. single dose) was “not-observable”, the “signs of acute toxicity in vivo” value ([5]; 30 mg/kg i.v. single dose) was “not-observable” and the “share of animals scored not-observable for signs of toxicity” value [5] was 100%. The MIC [6] was 1.5 µM and the MIC [7] was 1.5 µM.
